Results: ChEMBL document CHEMBL4823314, “Design, synthesis and biological evaluation of novel acridine and quinoline derivatives as tubulin polymerization inhibitors with anticancer activities” (Bioorg Med Chem, 2021)
Activity calls are given as the source filed them. No cut-off for these calls is given here.

Experiments:
HepG2 [1] = assay: Induction of apoptosis in human HepG2 cells assessed as necrotic cells at 5 uM measured after 48 hrs by AnnexinV-FITC/propidium iodide staining based flow cytometry (reference value: 1.05%); type: functional
HepG2 [2] = assay: Antiproliferative activity against human HepG2 cells assessed as reduction in cell viability at 0.5 uM by MTT assay; type: functional, cell-based; conditions: time 12-72 hrs, TDE = time-dependent effect
HepG2 [3] = assay: Disruption of microtubule network in human HepG2 cells incubated for 12 hrs by DAPI staining based immunofluorescence analysis; type: functional, cell-based; conditions: dose 0.1-1 µM
HepG2 [4] = assay: Cell cycle arrest in human HepG2 cells assessed as accumulation at G1 phase at 0.5 uM measured after 48 hrs by propidium iodide staining based flow cytometry analysis (reference value: 56.11%); type: functional
HepG2 [5] = assay: Induction of apoptosis in human HepG2 cells assessed as early apoptotic cells at 1 uM measured after 48 hrs by AnnexinV-FITC/propidium iodide staining based flow cytometry (reference value: 10.8%); type: functional
HepG2 [6] = assay: Cell cycle arrest in human HepG2 cells assessed as accumulation at G2/M phase at 1 uM measured after 48 hrs by propidium iodide staining based flow cytometry analysis (reference value: 9.27%); type: functional
HepG2 [7] = assay: Induction of apoptosis in human HepG2 cells assessed as late apoptotic cells at 5 uM measured after 48 hrs by AnnexinV-FITC/propidium iodide staining based flow cytometry (reference value: 5.93%); type: functional
HepG2 [8] = assay: Antiproliferative activity against human HepG2 cells assessed as reduction in cell viability incubated for 48 hrs by MTT assay; type: functional, cell-based; conditions: dose 2.5-10 µM
HepG2 [9] = assay: Induction of apoptosis in human HepG2 cells assessed as late apoptotic cells at 0.5 uM measured after 48 hrs by AnnexinV-FITC/propidium iodide staining based flow cytometry (reference value: 5.93%); type: functional
HepG2 [10] = assay: Cell cycle arrest in human HepG2 cells assessed as accumulation at G1 phase at 5 uM measured after 48 hrs by propidium iodide staining based flow cytometry analysis (reference value: 56.11%); type: functional
HepG2 [11] = assay: Cell cycle arrest in human HepG2 cells assessed as accumulation at G1 phase at 1 uM measured after 48 hrs by propidium iodide staining based flow cytometry analysis (reference value: 56.11%); type: functional
MCF7 [12] = assay: Antiproliferative activity against human MCF7 cells assessed as reduction in cell viability incubated for 48 hrs by MTT assay; type: functional, cell-based; conditions: dose 2.5-10 µM
HepG2 [13] = assay: Induction of apoptosis in human HepG2 cells assessed as early apoptotic cells at 5 uM measured after 48 hrs by AnnexinV-FITC/propidium iodide staining based flow cytometry (reference value: 10.8%); type: functional
HepG2 [14] = assay: Cell cycle arrest in human HepG2 cells assessed as accumulation at G2/M phase at 0.5 uM measured after 48 hrs by propidium iodide staining based flow cytometry analysis (reference value: 9.27%); type: functional
HepG2 [15] = assay: Induction of apoptosis in human HepG2 cells assessed as early apoptotic cells at 0.5 uM measured after 48 hrs by AnnexinV-FITC/propidium iodide staining based flow cytometry (reference value: 10.8%); type: functional
HepG2 [16] = assay: Induction of apoptosis in human HepG2 cells assessed as viable cells at 0.5 uM measured after 48 hrs by AnnexinV-FITC/propidium iodide staining based flow cytometry (reference value: 82.2%); type: functional; conditions: read-out: Activity
HeLa [17] = assay: Antiproliferative activity against human HeLa cells assessed as reduction in cell viability incubated for 48 hrs by MTT assay; type: functional, cell-based; conditions: dose 2.5-10 µM
MCF7 [18] = assay: cells; conditions: Homo sapiens, MCF7, 48 h
Description: Antiproliferative activity against human MCF7 cells assessed as reduction in cell viability measured after 48 hrs by MTT assay

HeLa [19] = assay: Antiproliferative activity against human HeLa cells assessed as reduction in cell viability at 0.5 uM by MTT assay; type: functional, cell-based; conditions: time 12-72 hrs, TDE = time-dependent effect
HepG2 [20] = assay: Inhibition of colony formation in human HepG2 cells at 1 uM incubated for 24 hrs by crystal violet staining based analysis; type: functional, cell-based
HepG2 [21] = assay: Cell cycle arrest in human HepG2 cells assessed as accumulation at G2/M phase at 5 uM measured after 48 hrs by propidium iodide staining based flow cytometry analysis (reference value: 9.27%); type: functional
[22] = Inhibition of pig brain tubulin polymerization by spectrophotometric method; type: tissue-based, Sus scrofa
HeLa [23] = assay: cells; conditions: Homo sapiens, 48 h
Description: Antiproliferative activity against human HeLa cells assessed as reduction in cell viability measured after 48 hrs by MTT assay

HepG2 [24] = assay: Induction of apoptosis in human HepG2 cells assessed as viable cells at 5 uM measured after 48 hrs by AnnexinV-FITC/propidium iodide staining based flow cytometry (reference value: 82.2%); type: functional; conditions: read-out: Activity
HepG2 [25] = assay: Inhibition of colony formation in human HepG2 cells incubated for 24 hrs by crystal violet staining based analysis; type: functional, cell-based; conditions: dose 0.1-1 µM
HepG2 [26] = assay: Cell cycle arrest in human HepG2 cells assessed as accumulation at S phase at 0.5 uM measured after 48 hrs by propidium iodide staining based flow cytometry analysis (reference value: 34.13%); type: functional
HepG2 [27] = assay: Antimigratory activity in human HepG2 cells assessed as inhibition of cell migration incubated for 24 hrs by scratch wound healing assay; type: functional, cell-based; conditions: dose 0.1-1 µM
HepG2 [28] = assay: Induction of apoptosis in human HepG2 cells assessed as necrotic cells at 0.5 uM measured after 48 hrs by AnnexinV-FITC/propidium iodide staining based flow cytometry (reference value: 1.05%); type: functional
HepG2 [29] = assay: Induction of apoptosis in human HepG2 cells assessed as viable cells at 1 uM measured after 48 hrs by AnnexinV-FITC/propidium iodide staining based flow cytometry (reference value: 82.2%); type: functional; conditions: read-out: Activity
Sus scrofa = organism: Sus scrofa; assay: Inhibition of pig brain tubulin polymerization measured upto 20 mins by spectrophotometric method; conditions: dose 3-100 µM, time min <=20
HepG2 [30] = assay: Antiproliferative activity against human HepG2 cells assessed as reduction in cell viability measured after 48 hrs by MTT assay; type: functional, cell-based; conditions: HepG2, 48 h
B16-F10 [31] = assay: Antiproliferative activity against mouse B16-F10 cells assessed as reduction in cell viability at 0.5 uM by MTT assay; type: functional, cell-based; conditions: time 12-72 hrs, TDE = time-dependent effect
HepG2 [32] = assay: Induction of apoptosis in human HepG2 cells assessed as necrotic cells at 1 uM measured after 48 hrs by AnnexinV-FITC/propidium iodide staining based flow cytometry (reference value: 1.05%); type: functional
HepG2 [33] = assay: Cell cycle arrest in human HepG2 cells assessed as accumulation at S phase at 5 uM measured after 48 hrs by propidium iodide staining based flow cytometry analysis (reference value: 34.13%); type: functional
MCF7 [34] = assay: Antiproliferative activity against human MCF7 cells assessed as reduction in cell viability at 0.5 uM by MTT assay; type: functional, cell-based; conditions: time 12-72 hrs, TDE = time-dependent effect
HepG2 [35] = assay: Cell cycle arrest in human HepG2 cells assessed as accumulation at S phase at 1 uM measured after 48 hrs by propidium iodide staining based flow cytometry analysis (reference value: 34.13%); type: functional
B16-F10 [36] = assay: Antiproliferative activity against mouse B16-F10 cells assessed as reduction in cell viability incubated for 48 hrs by MTT assay; type: functional, cell-based; conditions: dose 2.5-10 µM
HepG2 [37] = assay: Induction of apoptosis in human HepG2 cells assessed as late apoptotic cells at 1 uM measured after 48 hrs by AnnexinV-FITC/propidium iodide staining based flow cytometry (reference value: 5.93%); type: functional
B16-F10 [38] = assay: Antiproliferative activity against mouse B16-F10 cells assessed as reduction in cell viability measured after 48 hrs by MTT assay; type: functional, cell-based; conditions: B16-F10, 48 h

With `COc1ccc(N(C)c2cccc3ncccc23)cc1` the Activity (HepG2 [1]) was 2.5%, the Activity (HepG2 [2]) was “Tde” and the Activity (HepG2 [3]) was “Active”. The Activity (HepG2 [4]) was 42.3%, the Activity (HepG2 [5]) was 59.6% and the Activity (HepG2 [6]) was 27.32%. For the same compound, the Activity (HepG2 [7]) was 39.4%, the Activity (HepG2 [8]) was “Dose-Dependent Effect” and the Activity (HepG2 [9]) was 23.3%. For the same compound, the Activity (HepG2 [10]) was 38%, the Activity (HepG2 [11]) was 32.66% and the Activity (MCF7 [12]) was “Dose-Dependent Effect”. It also gave an Activity (HepG2 [13]) of 38.8%, an Activity (HepG2 [14]) of 17.46% and an Activity (HepG2 [15]) of 48.9%. For the same compound, the viability at 0.5 µM (HepG2 [16]) was 25.2%, the Activity (HeLa [17]) was “Dose-Dependent Effect” and the IC50 (MCF7 [18]) was 609 nM. For the same compound, the Activity (HeLa [19]) was “Tde”, the inhibition (HepG2 [20]) was “Active” and the Activity (HepG2 [21]) was 32.13%. The IC50 [22] was 12400 nM, the IC50 (HeLa [23]) was 2050 nM and the viability at 5 µM (HepG2 [24]) was 19.3%. The inhibition (HepG2 [25]) was “Dose-Dependent Effect”, the Activity (HepG2 [26]) was 38.55% and the Activity (HepG2 [27]) was “Dose-Dependent Effect”. The Activity (HepG2 [28]) was 2.58%, the viability at 1 µM (HepG2 [29]) was 10.6% and the inhibition (Sus scrofa) was “Dose-Dependent Effect”. The IC50 (HepG2 [30]) was 261 nM, the Activity (B16-F10 [31]) was “Tde” and the Activity (HepG2 [32]) was 1.38%. The Activity (HepG2 [33]) was 30.88%, the Activity (MCF7 [34]) was “Tde” and the Activity (HepG2 [35]) was 38.01%. The Activity (B16-F10 [36]) was “Dose-Dependent Effect”, the Activity (HepG2 [37]) was 28.5% and the IC50 (B16-F10 [38]) was 563 nM.
